Experiments:
[1] = test system: KMM1 cells; experiment: Growth inhibition, trypan blue exclusion assay; format: cell-based; conditions: Homo sapiens, KMM-1, KMM1, 48 h
Description: (§1) For the trypan blue exclusion assay, 2 × 10^5 cells/mL of each MM cell line were incubated with various concentrations of GTN057 (0–20 μM). The cells were cultured in triplicate plates, and viable cells were evaluated by a trypan blue exclusion assay (Trypan Blue Stain 0.4%, Gibco) using an automatic cell counter (TC20™, Bio‐Rad).

[2] = test system: KMS11 cells; experiment: Growth inhibition, trypan blue exclusion assay; format: cell-based; conditions: Homo sapiens, KMS-11, KMS11, 48 h
Description: as §1

[3] = test system: KMS21 cells; experiment: Growth inhibition, trypan blue exclusion assay; format: cell-based; conditions: Homo sapiens, KMS21, 48 h
Description: as §1

[4] = test system: KMS26 cells; experiment: Growth inhibition, trypan blue exclusion assay; format: cell-based; conditions: Homo sapiens, KMS-26, KMS26, 48 h
Description: as §1

[5] = test system: KMS27 cells; experiment: Growth inhibition, trypan blue exclusion assay; format: cell-based; conditions: Homo sapiens, KMS-27, KMS27, 48 h
Description: as §1

[6] = test system: KMS28 cells; experiment: Growth inhibition, trypan blue exclusion assay; format: cell-based; conditions: Homo sapiens, KMS28, 48 h
Description: as §1

[7] = test system: KMS34 cells; experiment: Growth inhibition, trypan blue exclusion assay; format: cell-based; conditions: Homo sapiens, KMS-34, KMS34, 48 h
Description: as §1

[8] = test system: MUM24 cells; experiment: Growth inhibition, trypan blue exclusion assay; format: cell-based; conditions: Homo sapiens, MUM24, 48 h
Description: as §1

[9] = test system: CD138-positive cells obtained from MM patients' bone marrow; experiment: Growth inhibition of patient cells, MTT assay; format: cell-based; conditions: Homo sapiens, 48 h
Excerpt: Mononuclear cells were obtained from the bone marrow aspirates of MM patients treated at Tokyo Saiseikai Central Hospital, by centrifugation with Lymphoprep™ (Axis‐Shield). The mononuclear cells were then labeled with CD138 MicroBeads from Miltenyi Biotec (Bergisch Gladbach). The labeled CD138‐positive cells were magnetically purified using MACS Columns (Miltenyi Biotec).
For the 3‐[…] (MTT) assay (Roche Diagnostics), 6 × 10^4 cells/mL of CD138‐positive bone marrow cells were cultured in 96‐well plates in triplicate with various concentrations of GTN057 for 48 h. The cell viability was examined by MTT dye absorbance in accord with the manufacturer's manual. We obtained the IC50 values by drawing approximate straight lines in semilogarithmic growth curves, using Microsoft Excel.

[10] = Toxicity assessment in ICR mice; format: in vivo
Excerpt: For the toxicity assessment of GTN057 in vivo, we intraperitoneally (i.p.)‐injected male 5‐week‐old ICR mice (CLEA, […]) dissolved in 1% Tween® 80 + 10% DMSO in saline on 2 consecutive days of every 3‐day period for 2 weeks. The mice were weighed every week. Peripheral blood was collected with a heparinized hematocrit tube (Terumo, Tokyo) from the tail vein of each mouse every week and was stained with Türk's solution (Merck). The numbers of leukocytes and neutrophils were counted using light microscopy.

[11] = test system: KMS11 cells; experiment: In vivo tumor growth assay, KMS11 xenograft; set-up: species or system ICR/SCID mice; conditions: 100 mg/kg i.p., after 2 weeks of treatment, KMS11-xenografted SCID mice
Description: For the in vivo tumor growth assay, we injected 3 × 10^7 cells of KMS11 cells subcutaneously into the flank of male 5‐week‐old ICR/SCID mice. When the tumors reached 100 mm^3, we injected (i.p.) 20 or 100 mg/kg of GTN057 solubilized in 1% Tween® 80 + 10% DMSO in saline twice every 3 days for 2 weeks. We measured the tumor volumes every day for 2 weeks as the length × width^2 × 0.52.[21]

[12] = test system: FGF-2 stimulated ERK1/2, STAT3, AKT1 phosphorylation; experiment: Western blot, FGF-2-stimulated signaling in KMS11 cells; format: cell-based, human; conditions: KMS11 cells stimulated by FGF-2
Description: (§2) MM cells (4 × 10^5 cells/mL) were incubated with 0–20 μM GTN057 for 12 h. The cells were then co‐cultured with 0–50 ng/mL of hepatocyte growth factor (HGF) (PeproTech, London) or 0–20 ng/mL of fibroblast growth factor (FGF)‐2 (PeproTech) with 1 unit/mL of heparin in RPMI containing 4% dialyzed FCS (Gibco) for the KMS11 and KMS34 cells and 10% dialyzed FCS for the KMS21 cells for 15 min at RT (room temperature). A549 cells were co‐cultured with 0–50 ng/mL of epidermal growth factor (EGF) (PeproTech) in Eagle's MEM containing 4% dialyzed FCS for 15 min at RT. […]
(§3) The protein concentrations were measured using a BCA Protein Assay Kit (Thermo Fisher Scientific). […]
(§4) Antibodies against phospho‐STAT3 (Tyr705), phospho‐Akt (Ser473), p44/42 MAPK (Erk 1/2), phosphor‐p44/42 MAPK (Thr202/Tyr 204), and phospho‐c‐Met (Tyr1234/1235) (all from Cell Signaling Technology, Danvers, MA) or STAT3, Akt, c‐Met, and β‐actin (all from Santa Cruz Biotechnology, Santa Cruz, CA) or phospho‐c‐Met (Tyr1230/1234/1235) (Biosource, Camarillo, CA for KMS34 cells in Figure 3A) were each used at 1:1000 dilution. […] The Western blotting signals were detected by enhanced ECL chemiluminescence (Amersham). The signal intensity of each band was quantified densitometrically with ImageJ software (ver. 1.48, U.S. National Institutes of Health).

[13] = test system: EGF stimulated ERK1/2, STAT3, AKT1 phosphorylation; experiment: Western blot, EGF-stimulated signaling in A549 cells; format: cell-based, human; conditions: EGF stimulation
Description: as §2, §3, §4

`COc1c(OC(C)=O)c2c(c(O)c1C(C)C)C(=O)CC1C(C)(C)CCC[C@]1(O)C2` (stereo partly shown) [GTN057] gave an IC50 [1] of 20.5 µM, an IC50 [2] of 11.2 µM and an IC50 [3] of 10.1 µM. It also gave an IC50 [4] of 9.91 µM, an IC50 [5] of 7.93 µM and an IC50 [6] of 24 µM. For the same compound, the IC50 [7] was 20.1 µM, the IC50 [8] was 5.29 µM and the IC50 ([9]; Patient 1 CD138+ cells) was 12.1 µM. The IC50 ([9]; Patient 2 CD138+ cells) was 16.3 µM, the IC50 ([9]; Patient 3 CD138+ cells) was 26.3 µM and the IC50 ([9]; Patient 4 CD138+ cells) was 18.7 µM. For the same compound, the “Neutropenia and systemic toxicity” value ([10]; 100 mg/kg, 2 days of each 3-day period over 2 weeks, mice) was “no significant neutropenia or systemic toxicity”, the “Body weight and leukocyte count” value ([10]; 40 or 100 mg/kg i.p., 2 consecutive days of each 3-day period for 2 weeks, ICR mice) was “neither a loss of body weight nor leukocytopenia” and the Maximal tolerated dose ([10]; i.p., 2 days of every 3-day period, mice) was ≥ 100 mg/kg. For the same compound, the Average tumor volume [11] was 0.71 ± 0.17 cm^3, the Average tumor weight [11] was 0.98 ± 0.16 g and the “ERK1/2, STAT3, AKT1 phosphorylation levels” value [12] was “did not clearly change”. For the same compound, the “ERK1/2, STAT3, AKT1 phosphorylation levels” value [13] was “not altered”.
